According to patent publication US20060063785A1, “Substituted pyrazolo[1,5-a] pyrimidines and process for making same” (priority 2004, published 2006):

The compounds below were run on 80S14 (p21-deficient) cells (assay: Determination of selectivity of compounds for p21-/- cells: IC50 in 80S14 cells (SRB)). Settings: 80S14 (p21-deficient) cells, 5 days at 37° C., SRB; read-out: IC50 for 80S14.
Type: cell-based, human
Procedure: • 1. 80S14 (p21-deficient) cells were cultured in RPMI 1640 medium (Gibco/Invitrogen Life technologies) supplemented with 10% fetal bovine serum (FBS, Gibco) and 10 μg/ml gentamycin (Gibco). Cells were maintained at 37° C. under 7% CO2. • 2. Cells were plated at 6×10^4/ml (0.2 ml/well; 12,000 cells/well) in 96-well microtiter plates (Falcon or Corning/Costar) and incubated at 37° C. overnight (18-24 hours). • 3. 2-5 μl of the test agent-[200 μg/ml stock in 20% DMSO/20 mM HEPES, pH 7.5 (Gibco)] was added to each well to achieve a final concentration of 2-5 μg/ml. Cells were incubated with the test compounds for 5 days at 37° C. • 4. Surviving cells were fixed with 50 μl 50% trichloroacetic acid (Sigma; 10% final concentration) for 1 hour at 4° C. • 5. Plates were rinsed twice with water (0.3 ml per wash using MRD8 robot), and allowed to dry. • 6. Sulforhodamine B (SRB) (Sigma; 0.4% in 1% acetic acid, 50 μl per well; MRD8 robot) was added and plates kept at room temperature for 10 minutes. • 7. Excess dye was removed by washing with 1% acetic acid (3 times, 0.3 ml per wash; MRD8 robot) and allowed to dry. • 8. The dye was solubilized in Tris base (Sigma; 10 mM, 150 μl per well). Plates were kept at room temperature for 30 minutes to allow the dye to diffuse. • 9. Absorbance was measured at 540 nm. • 10. The percentage of cells surviving drug treatment relative to control wells (no drug) was determined. • 11. The difference in % cell survival between the two cell lines was calculated. • 12. Compounds producing a difference score of >50 were considered to be selective for the p21-deficient cells and were evaluated further. Determination of Selectivity of Compounds for p21−/− Cells: • 1. 80S14 cells were cultured as described above. • 2. Cells were seeded in 96-well microtiter plates at 12,000 cells/well (either 0.15 ml/well of 8×10^4 cells/ml suspension, or 0.2 ml/well of 6×10^4 cells/ml suspension). Plates were incubated at 37° C. overnight (18-24 hours). • 3. Serial dilutions of the test agent were added to each well. Dilutions were prepared either in 40% DMSO/20% methanol/20 mM HEPES, pH 7.5 (Gibco) or directly in growth medium. One of two dose ranges were used: 5 pM to 50 μM or 170 pg/ml to 10 μg/ml. Cells were incubated with the test compounds for 5 days at 37° C. • 4. Surviving cells were fixed with 50 μl 50% trichloroacetic acid (Sigma; 10% final concentration) for 1 hour at 4° C. • 5. Plates were rinsed extensively in water, and allowed to dry. • 6. Sulforhodamine B (Sigma; 0.4% in 1% acetic acid, 70 μl per well) was added and plates kept at room temperature for 10 minutes. • 7. Excess dye was removed by washing 5 times with 1% acetic acid and plates were allowed to dry. • 8. The dye was solubilized in Tris base (Sigma; 10 mM, 150 μl per well). Plates were placed on a titer plate shaker (Lab Line Instruments) for 5 minutes to allow the dye to diffuse. • 9. Absorbance was measured at 560 nm.
10. The drug concentration which inhibits cell proliferation by 50% relative to untreated controls (IC50) was determined from cytotoxicity curves.

Compound	IC50 [µM]
CCS(=O)(=O)Nc1cccc(-c2ccnc3c(C(=O)c4cccs4)cnn23)c1 [Example 21, N-{3-[-(thien-2-ylcarbonyl)pyrazolo[1,5-a]pyrimidin-7-yl]phenyl}ethanesulfonamide]	< 1
COC(=O)CCC(=O)Nc1cccc(-c2ccnc3c(C(=O)c4cccs4)cnn23)c1 [Example 35, methyl 4-oxo-4-({3-[3-(thien-2-ylcarbonyl)pyrazolo[1,5-a]pyrimidin-7-yl]phenyl}anmino)butanoate]	10 to 50
O=C(c1cccs1)c1cnn2c(-c3cccc(NC(=O)C(Cl)(Cl)Cl)c3)ccnc12 [Example 38, 2,2,2-trichloro-N-{3-[3-(thien-2-ylcarbonyl)pyrazolo[1,5-a]pyrimidin-7-yl]phenyl} acetamide]	1 to 10
CC12CCC(C(=O)Nc3cccc(-c4ccnc5c(C(=O)c6cccs6)cnn45)c3)(OC1=O)C2(C)C (centres unmarked) [Example 43]	< 1
COCCOCC(=O)Nc1cccc(-c2ccnc3c(C(=O)c4cccs4)cnn23)c1 [Example 49, 2-(2-methoxyethoxy)-N-{3-[3-(thien-2-ylcarbonyl)pyrazolo[1,5-a]pyrimidin-7-yl]phenyl} acetamide]	1 to 10
NCC(=O)Nc1cccc(-c2ccnc3c(C(=O)c4cccs4)cnn23)c1 [Example 59, N-1--{3-[3-(thien-2-ylcarbonyl)pyrazolo[1,5-a]pyrimidin-7-yl]phenyl}glycinamide]	10 to 50
C[C@H](N)C(=O)Nc1cccc(-c2ccnc3c(C(=O)c4cccs4)cnn23)c1 [Example 60, N-1-{3-[3-(thien-2-ylcarbonyl)pyrazolo[1,5-a]pyrimidin-7-yl]phenyl}-L-alaninamide]	1 to 10
CC(C)C[C@H](N)C(=O)Nc1cccc(-c2ccnc3c(C(=O)c4cccs4)cnn23)c1 [Example 61, N-1-{3-[3-(thien-2-ylcarbonyl)pyrazolo[1,5-a]pyrimidin-7-yl]phenyl}-L-leucinamide]	10 to 50
CC[C@H](C)[C@H](N)C(=O)Nc1cccc(-c2ccnc3c(C(=O)c4cccs4)cnn23)c1 [Example 62, N-1-{3-[3-(thien-2-ylcarbonyl)pyrazolo[1,5-a]pyrimidin-7-yl]phenyl}-L-isoleucinamide]	1 to 10
N[C@@H](CC1CCCCC1)C(=O)Nc1cccc(-c2ccnc3c(C(=O)c4cccs4)cnn23)c1 [Example 64, 3-cyclohexyl-N-1-{3-[3-(thien-2-ylcarbonyl)pyrazolo[1,5-a]pyrimidin-7-yl]phenyl}-L-alaninamide]	10 to 50
CC(C)[C@H](N)C(=O)Nc1cccc(-c2ccnc3c(C(=O)c4cccs4)cnn23)c1 [Example 65, N-1-{3-[3-(thien-2-ylcarbonyl)pyrazolo[1,5-a]pyrimidin-7-yl]phenyl}-L-valinamide]	1 to 10
O=C(COc1ccccc1)Nc1cccc(-c2ccnc3c(C(=O)c4cccs4)cnn23)c1 [Example 93, 2-phenoxy-N-{3-[3-(thien-2-ylcarbonyl)pyrazolo[1,5-a]pyrimidin-7-yl]pheriyl}acetamide]	1 to 10
CCCCCNC(=O)NCC(=O)Nc1cccc(-c2ccnc3c(C(=O)c4cccs4)cnn23)c1 [Example 118, N-2-[(pentylamino)carbonyl]-N-1-{3-[3-(thien-2-ylcarbonyl)pyrazolo[1,5-A]pyrimidin-7-yl]phenyl}glycinamide]	10 to 50
CCNC(=O)NCC(=O)Nc1cccc(-c2ccnc3c(C(=O)c4cccs4)cnn23)c1 [Example 119, N-2-[(ethylamino)carbonyl]-N-1-{3-[3-(thien-2-ylcarbonyl)pyrazolo[1,5-a]pyrimidin-7-1yl]phenyl}glycinamide]	1 to 10
O=C(CNC(=O)NC1CCCCC1)Nc1cccc(-c2ccnc3c(C(=O)c4cccs4)cnn23)c1 [Example 120, N-2-[(cyclohexylamino)carbonyl]-N-1-{3-[3-(thien-2-ylcarbonyl)pyrazolo[1,5-a]pyrimidin-7-yl]phenyl}glycinamide]	1 to 10

Same assay, conditions: Cellular activity in 80S14 (p21-deficient) cells, SRB; class symbols; read-out: IC50 for 80S14

Compound	IC50 [µM]
3-(3,5-Dimethylphenyl)-7-{3-[2-(2-piperidin-1-ylethyl)-2H-tetrazol-5-yl]phenyl}pyrazolo[1,5-a]pyrimidine [Example 388]	1 to 10
3.5-Dinitro-N-{3-[3-(2-thienylcarbonyl)pyrazolo[1,5-a]pyrimidin-7-yl]phenyl}benzamide [Example 198]	10 to 50

Same assay, conditions: Homo sapiens, 80S14, 120 h, read-out: IC50 for 80S14 (μM)

Compound	IC50 [µM]
C=C(C)OC(=O)Nc1cccc(-c2ccnc3c(C(=O)c4cccs4)cnn23)c1 [Example 15, isopropenyl3-[3-(thien-2-ylcarbonyl)pyrazolo[1,5-a]pyrimidin-7-yl]phenylcarbamate]	< 1

Same assay, conditions: Homo sapiens, 120 h; 80S14 (p21-deficient) cells, 5 days at 37° C., SRB; read-out: IC50 for 80S14

Compound	IC50 [µM]
C[C@H](NC(=O)Nc1cccc(-c2ccnc3c(C(=O)c4cccs4)cnn23)c1)c1ccccc1 [Example 9, N-[(1S)-1-phenylethyl]-N′-{3-[3-(thien-2-ylcarbonyl)pyrazolo [1,5-a]pyrimidin-7-yl]phenyl}urea]	1 to 10
O=C(c1cccs1)c1cnn2c(-c3cccc(NC(=O)[C@@H]4CCCN4C(=O)C(F)(F)F)c3)ccnc12 [Example 41, N-{3-[3-(thien-2-ylcarbonyl)pyrazolo[1,5-a]pyrimidin-7-yl]phenyl}-1-(trifluoroacetyl)-L-prolinamide]	1 to 10
O=C(c1cccs1)c1cnn2c(-c3cccc(NC(=O)C45CC6CC(CC(C6)C4)C5)c3)ccnc12 [Example 42, N-{3-[3-(thien-2-ylcarbonyl)pyrazolo[1,5-a]pyrimidin-7-yl]phenyl} adamantane-1-carboxamide]	< 1
C#CCCC(=O)Nc1cccc(-c2ccnc3c(C(=O)c4cccs4)cnn23)c1 [Example 45, N-{3-[3-(thien-2-ylcarbonyl)pyrazolo[1,5-a]pyrimidin-7-yl]phenyl}pent-4-ynamide]	< 1
CC(=O)OCC(=O)Nc1cccc(-c2ccnc3c(C(=O)c4cccs4)cnn23)c1 [Example 48, 2-oxo-2-({3-[3-(thien-2-ylcarbonyl)pyrazolo[1,5-a]pyrimidin-7-yl]phenyl}amino)ethyl acetate]	1 to 10
O=C(Cc1cccs1)Nc1cccc(-c2ccnc3c(C(=O)c4cccs4)cnn23)c1 [Example 50, 2-thien-2-yl-N-{3-[3-(thien-2-ylcarbonyl)pyrazolo[1,5-a]pyrimidin-7-yl]phenyl}acetamide]	< 1
O=C(c1cccs1)c1cnn2c(-c3cccc(NC(=O)[C@@H]4CCCN4)c3)ccnc12 [Example 67, N-{3-[3-(thien-2-ylcarbonyl)pyrazolo[1,5-a]pyrimidin-7-yl]phenyl}-L-prolinamide]	1 to 10
N[C@H](C(=O)Nc1cccc(-c2ccnc3c(C(=O)c4cccs4)cnn23)c1)C1CCCCC1 [Example 68, (2S)-2-amino-2-cyclohexyl-N-{3-[3-(thien-2-ylcarbonyl)pyrazolo[1,5-a]pyrimidin-7-yl]phenyl}ethanamide]	1 to 10
O=C(Nc1cccc(-c2ccnc3c(C(=O)c4cccs4)cnn23)c1)c1ccc(Cl)cc1 [Example 71, 4-chloro-N-{3-[3-(thien-2-ylcarbonyl)pyrazolo[1,5-a]pyrimidin-7-yl]phenyl}benzamide]	1 to 10
CC(C)(C)C(=O)NCC(=O)Nc1cccc(-c2ccnc3c(C(=O)c4cccs4)cnn23)c1 [Example 114, 2,2-dimethyl-N-[2-oxo-2-({3-[3-(thien-2-ylcarbonyl)pyrazolo[1,5-a]pyrimidin-7-yl]phenyl}amino)ethyl]propanamide]	1 to 10
O=C(CNC(=O)C12CC3CC(CC(C3)C1)C2)Nc1cccc(-c2ccnc3c(C(=O)c4cccs4)cnn23)c1 [Example 116, N-[2-oxo-2-({3-[3-(thien-2-ylcarbonyl)pyrazolo[1,5-a]pyrimidin-7-yl]phenyl}amino)ethyl] adamantane-1-carboxamide]	1 to 10
